# From patent US7741540B2, “Compositions comprising D-amino acids” (BASF Plant Science GmbH, priority 2002, dated 2010)
# “Also recorded” adds a separate entry of the source.
# Experiments:
# Nicotiana tabacum = test: Growth of wild-type seedlings on nitrate free agar media amended with D-serine; type: in vivo; conditions: two to three weeks, 0, 0.3, 3 and 30 mM tested
# Description: (§1) A. thaliana seeds from non-transformed plants and D-Serine ammonia-lyase transformed plants were surface sterilised with 70% ethanol and 0.1% Tween 80 for 10 minutes and rinsed briefly in 95% ethanol. 10 seeds were sown in each plate and the plates where thereafter sealed with gas permeable tape. The growth medium was half-strength MS (Murashige, T. & Skoog, F. Physiol Plant 15, 310-313 (1962)) (with 0.5% w/v sucrose and 0.8% w/v agar) with nitrogen either excluded or included as 3 mM nitrate. Filter sterilised D-serine was added to the medium after autoclaving. Plants were grown for 14 days after germination with a 16 h photoperiod at 24° C. Plants were extracted from the plates, washed three times in 0.5 mM CaCl2 and thereafter dried at 40° C. for 48 hours before dry weight measurements. The N content was determined on dried plants using an elemental analyser (PerkinElmer 2400 CHN). Biomass and nitrogen content were measured on a per plate basis and there were 10 plants per plate. Six independent transgenic lines were evaluated for their capacity to grow on D-serine and no substantial difference was noticed among the lines, although dsdA transcript levels varied substantially according to northern blot analyses. Seeds from Solanum esculentum, Hordeum vulgare, Zea mays, Populus tremuloides, Nicotiana tabacum and Arabidopsis thaliana were surface sterilised and grown for two to three weeks on agar media identical to the nitrate free media described above and amended with 0, 0.3, 3 and 30 mM D-serine.
# Lycopersicon esculentum = test: as above; type: in vivo; conditions: two to three weeks, 0, 0.3, 3 and 30 mM tested
# Description: as §1
# Zea mays = test: as above; type: in vivo; conditions: two to three weeks, 0, 0.3, 3 and 30 mM tested
# Description: as §1
# Populus tremuloides = test: as above; type: in vivo; conditions: two to three weeks, 0, 0.3, 3 and 30 mM tested
# Description: as §1
# Hordeum vulgare = test: as above; type: in vivo; conditions: two to three weeks, 0, 0.3, 3 and 30 mM tested
# Description: as §1
# [1] = system: wild-type Arabidopsis thaliana; test: Growth of wild-type plants on sterile agar supplied with D-serine; type: in vivo; conditions: for toxicity to wild-type plants: FIG. 3, FIG. 5
# Description: as §1, with “D-serine. […] For A. thaliana, clear growth inhibition is observed at a concentration of 0.3 mM D-serine in the growth medium and total growth inhibition occurs at 3 mM (FIG. 3). Transgenic Arabidopsis thaliana plants expressing the gene encoding D-serine dehydratase were grown sterile alongside wild type plants on agar for 20 days on standard MS medium supplemented with varying concentrations of D-serine as the sole N source (30 mM, 3 mM, 0.3 mM) along with a control lacking any nitrogen.” for “D-serine.”
# [2] = system: Somatic embryonic cell suspension cultures of Picea abies; test: Somatic embryonic cell suspension cultures grown on a range of D-serine concentrations; type: cell-based; conditions: 0, 0.3, 3 and 30 mM tested
# Description: Somatic embryonic cell suspension cultures of Picea abies were grown on a range of D-serine concentrations; 0, 0.3, 3 and 30 mM D-serine. D-serine was lethal to cells at and above 3 mM.
# [3] = system: Arabidopsis thaliana expressing Rhodotorula gracilis D-amino acid oxidase (dao1); test: Growth of plants expressing D-amino acid oxidase on D-amino acid media in sterile agar culture; type: in vivo
# Description: Transgenic plants expressing D-amino acid oxidase were constructed essentially in the same way as the dsdA plants described above, with the following modifications: The dao1 gene (EC: 1.4.3.3 (SEQ ID NO: 6): NCBIU60066 (SEQ ID NO: 5)) from the yeast Rhodotorula gracilis (Rhodosporidium toruloides) was cloned with PCR with a cDNA library prepared from yeast grown on D-alanine containing medium to induce expression of the target gene, as a template. PCR primers were 5′-[…] (SEQ ID NO: 3) and 5′-[…] (SEQ ID NO: 4).
# PCR was also performed with another set of primers, with one primer flanking the 5′ end of the open reading frame as set out above and a 3′ primer excluding the last […] nucleotides. The last nine nucleotides encode the signal peptide SKL, which guides the protein to the peroxisome sub-cellular organelle.
# The resulting amplified sequences encode proteins which have the same amino acid sequence but which differ in the respect of their location in the cell. The truncated polypeptide, without the signal peptide, is expressed in the cytosol, while the full-length polypeptide is expressed in the peroxisome.
# Construction of Arabidopsis thaliana plants expressing two variants of Rhodotorula gracilis D-amino acid oxidase were made as described above.
# [4] = system: Arabidopsis seedlings grown on soil; test: Selection of transgenic seedlings on soil by spraying D-Serine; type: in vivo, Arabidopsis thaliana; conditions: 30 mM sprayed three times during one week
# [5] = system: dsdA-transformed embryos of Picea abies; test: Selection of dsdA-transformed embryos on D-serine medium; type: cell-based
# Description: The transformation method used was particle bombardment of a cell suspension. Somatic embryonic cell suspension cultures of Picea abies were grown on a range of D-serine concentrations; 0, 0.3, 3 and 30 mM D-serine. D-serine was lethal to cells at and above 3 mM.
# [6] = system: tobacco transformed with dsdA; test: Resistance of dsdA-transformed plants to D-Ser; conditions: in vivo
# Description: (§2) Poplar and tobacco were transformed using the same vector and transformation protocol described above for the transformation of Arabidopsis.
# [7] = system: poplar transformed with dsdA; test: Resistance of dsdA-transformed plants to D-Ser; conditions: in vivo
# Description: as §2
# [8] = system: transgenic Arabidopsis thaliana expressing E. coli D-serine ammonia-lyase (dsdA); test: Growth and N content of transgenic plants expressing dsdA on D-serine media; type: in vivo
# Description: The E. coli gene dsdA (D-serine dehydratase (D-serine deaminase) [EC:4.3.1.18 (SEQ ID NO: 8)] NCBI accession number J01603 (SEQ ID NO: 7)) was amplified by PCR using primers 5′-[…] (SEQ ID NO: 1) and 5′-[…] (SEQ ID NO: 2). The PCR product was sub-cloned into pT-easy (Promega) and sequenced with DYEnamics cycle sequencing kit, (Amersham Pharmacia biotech). Alignment analysis with the database sequence confirmed successful full length cloning of dsdA. The clone was subsequently ligated into the BamH1 site of the CaMV 35S expression cassette of the binary vector pPCV702Km, which is a disarmed Ti-plasmid of Agrobacterium tumefaciens, to generate the vector pPCV702:dsdA. Restriction analysis of this vector with endonuclease confirmed orientation of insertion.
# A. thaliana, ecotype Col-0, plants were transformed with Agrobacterium tumefaciens strain (GV3101:pMP90 RK) through vacuum infiltration (Clough, S. J. & Bent, A. F. Plant Journal. 16, 735-743 (1998)). Transformants were selected on kanamycin containing plates, and molecularly confirmed using northern blots. All analyses were performed using lines homozygous for the transgenic trait.
# as §1, with “analyses.” for “analyses. Seeds from Solanum esculentum, Hordeum vulgare, Zea mays, Populus tremuloides, Nicotiana tabacum and Arabidopsis thaliana were surface sterilised and grown for two to three weeks on agar media identical to the nitrate free media described above and amended with 0, 0.3, 3 and 30 mM D-serine.”
# Transgenic Arabidopsis thaliana plants expressing the gene encoding D-serine dehydratase were grown sterile alongside wild type plants on agar for 20 days on standard MS medium supplemented with varying concentrations of D-serine as the sole N source (30 mM, 3 mM, 0.3 mM) along with a control lacking any nitrogen.
# wild type tobacco = test: Shoot formation on shoot inducing media with D-Ser; type: in vivo
# wild type poplar = test: Shoot formation on shoot inducing media with D-Ser; type: in vivo
# wild type Arabidopsis = test: Growth of wild type plants on D-Asn or D-ile in sterile agar culture; type: in vivo, Arabidopsis thaliana
smiles,measurement,setting,value
N[C@H](CO)C(=O)O [D-serine],D-serine concentration in the media at which growth was inhibited,Nicotiana tabacum,3 mM
same,D-serine concentration in the media at which growth was inhibited,Lycopersicon esculentum,3 mM
same,D-serine concentration in the media at which growth was inhibited,Zea mays,30 mM
same,D-serine concentration in the media at which growth was inhibited,Populus tremuloides,3 mM
same,D-serine concentration in the media at which growth was inhibited,Hordeum vulgare,30 mM
same,growth of wild-type plants with increasing D-serine concentration,"[1]; D-serine as sole N source, 0.3, 3, 30 mM (FIG. 3)",No increase
same,concentration in the growth medium at which clear growth inhibition is observed,[1]; FIG. 3,0.3 mM
same,concentration in the growth medium at which total growth inhibition occurs,[1]; FIG. 3,3 mM
same,toxicity to wild-type plants,[1],toxic effect
same,toxicity to wild-type plants,[1]; listed as D-ser,shows toxicity
same,growth and nitrogen content of wild-type plants with increasing D-serine concentration,[1]; in the presence of a basic level of nitrate (3 mM) (FIG. 5),opposite response
same,D-serine concentration in the media at which growth was inhibited,"[1]; nitrate free agar, two to three weeks, 0, 0.3, 3 and 30 mM tested",3 mM
same,concentration lethal to cells,[2],≥ 3 mM
same,effect of expressed D-amino acid oxidase on toxicity of the D-amino acid,[3]; in vivo,alleviate the toxicity
same,selection of transgenic plants by spraying,[4],Successful selection
same,D-serine concentration of medium on which transformed embryos could be selected,[5],3 mM
same,concentration to which transformed plants were resistant,[6],exceeding 30 mM
same,concentration to which transformed plants were resistant,[7],exceeding 30 mM
same,N concentration of plants compared with plants grown on 3 mM nitrate,"[8]; 3 mM D-serine, ANOVA p<0.0001",significantly lower
same,growth and N content of transgenic plants with increasing D-serine concentration,"[8]; D-serine as sole N source, p<0.0001 (FIG. 4)",increase significantly
same,growth on D-serine compared with nitrate at equal concentration,[8]; FIG. 4(top) and 5(top),lower growth
same,growth and nitrogen content of transgenic plants with increasing D-serine concentration,"[8]; in the presence of a basic level of nitrate (3 mM), p<0.0001 (FIG. 5)",increased significantly
same,toxicity symptoms in transgenic plants,[8]; within the observed range of D-Ser,no toxicity symptoms
same,concentration sufficient to stop all shoot formation,wild type tobacco,30 mM
same,concentration sufficient to stop all shoot formation,wild type poplar,3 mM
CC[C@@H](C)[C@@H](N)C(=O)O [D-ile],hindering of growth of transgenic plants expressing dao1 (compared with D-Asn),[3]; in vivo,even more effective in hindering growth
same,wild type growth with increasing concentration,wild type Arabidopsis; examined interval 0.3 to 30 mM,increase in growth
same,inhibitory effect on wild type plants,wild type Arabidopsis; in vivo,no visible inhibitory effect
C[C@@H](N)C(=O)O [D-alanine],effect of expressed D-amino acid oxidase on toxicity of the D-amino acid,[3]; in vivo,alleviate the toxicity
NC(=O)C[C@@H](N)C(=O)O [D-Asn],growth / germination of D-amino oxidase expressing plants,"[3]; 30 mM, sterile agar culture",total inhibition of growth; also recorded: inhibited significantly more than the wild-type
same,growth of wild type plants,"wild type Arabidopsis; 30 mM, sterile agar culture",only partially retarded
